For 74 compounds, IC50 results are on record in US20060252807A1, “Novel ortho-terphenyl inhibitors of p38 kinase and methods of treating inflammatory disorders” (Kalypsys, Inc., priority 2005, published 2006).

The target in this experiment is T1, active p38 alpha enzyme (Upstate Biotechnology) (Homo sapiens, UniProt Q16539).
T1 construct: purchased Upstate Biotechnology
As to the kind of experiment: p38α biochemical assay (ATP turnover, luminescent detection, Cambrex PKlight). The settings on record: p38α kinase; Table 1 Biological Activity. The gist of the method:
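Active human p38α was incubated with full-length MapkapK2 protein as substrate and 1.4 uM ATP (final) for 2 hours at 30C. Buffer: 200 mM Tris, 100 mM MgCl2, 1.5 mM EGTA, 4 mM CaCl2, 20 mM MOPS, 1 mM EDTA, 1% glycerol, 0.1% β-mercaptoethanol, 1 mg/ml BSA. Total ATP turnover read by luminescence.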

Structures are written as SMILES. Some results are limits rather than exact numbers.

T1 sequence (Q16539 whole entry): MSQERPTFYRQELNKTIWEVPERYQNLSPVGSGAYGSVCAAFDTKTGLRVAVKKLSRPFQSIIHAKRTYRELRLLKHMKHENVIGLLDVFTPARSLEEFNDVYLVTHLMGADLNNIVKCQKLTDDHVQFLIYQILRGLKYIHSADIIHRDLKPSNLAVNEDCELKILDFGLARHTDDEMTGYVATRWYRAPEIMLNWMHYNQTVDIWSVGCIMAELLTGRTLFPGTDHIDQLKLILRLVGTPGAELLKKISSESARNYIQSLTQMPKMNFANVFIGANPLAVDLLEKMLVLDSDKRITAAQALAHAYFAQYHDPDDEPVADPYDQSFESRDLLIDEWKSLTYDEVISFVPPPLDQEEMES

Compound `CC(C)NC(=O)c1csc(-c2c(-c3ccc(F)cc3)noc2CNc2cc(C(F)(F)F)ccc2C(F)(F)F)n1` [Example 1697] showed an IC50 above 1000 nM. `CC(C)NC(=O)c1csc(-c2c(-c3ccc(F)cc3)noc2CNc2cc(C(F)(F)F)cc(C(F)(F)F)c2)n1` [Example 1698] yielded an IC50 above 1000 nM. The result for `CC(C)NC(=O)c1csc(-c2c(-c3ccc(F)cc3)noc2CNc2ccc(C(F)(F)F)cc2C(F)(F)F)n1` [Example 1699] reads above 1000 nM; that for `CC(C)NC(=O)c1csc(-c2c(-c3ccc(F)cc3)noc2CBr)n1` [Example 1700], above 1000 nM. On to `Cc1nc(-c2ccc(F)cc2)c(-c2nc(C(=O)NC3CCCc4ccccc43)cs2)s1` (centres unmarked) [Example 1701], for which the IC50 is above 1000 nM. The compound `COc1ccc(NC(=O)c2csc(-c3sc(C)nc3-c3ccc(F)cc3)n2)cc1OC` [Example 1702] yielded an IC50 of at most 1000 nM. `Cc1nc(-c2ccc(F)cc2)c(-c2nc(C(=O)O)cs2)s1` [Example 1703] had an IC50 above 1000 nM. In turn, `Cc1nc(-c2ccc(F)cc2)c(-c2nc(C(=O)N(CCC#N)Cc3ccccc3)cs2)s1` [Example 1704] had an IC50 above 1000 nM. Under `CNC(=O)c1csc(-c2sc(C)nc2-c2ccc(F)cc2)n1` [Example 1705] stands at most 1000 nM; under `CCNC(=O)c1csc(-c2sc(C)nc2-c2ccc(F)cc2)n1` [Example 1706], at most 1000 nM.

Regarding `C#CCNC(=O)c1csc(-c2sc(C)nc2-c2ccc(F)cc2)n1` [Example 1707], the IC50 was at most 1000 nM. For `Cc1nc(-c2ccc(F)cc2)c(-c2nc(C(=O)NCC#N)cs2)s1` [Example 1708], the IC50 is at most 1000 nM.

`Cc1nc(-c2ccc(F)cc2)c(-c2nc(C(=O)NC3CC3)cs2)s1` [Example 1709] displayed an IC50 above 1000 nM.

On to `CCCNC(=O)c1csc(-c2sc(C)nc2-c2ccc(F)cc2)n1` [Example 1710], for which the IC50 was above 1000 nM. Under `Cc1nc(-c2ccc(F)cc2)c(-c2nc(C(=O)NCCN)cs2)s1` [Example 1711] stands above 1000 nM. For `Cc1nc(-c2ccc(F)cc2)c(-c2nc(C(=O)NCCO)cs2)s1` [Example 1712], the IC50 was at most 1000 nM. Regarding `Cc1nc(-c2ccc(F)cc2)c(-c2nc(C(=O)NCCC#N)cs2)s1` [Example 1713], the IC50 is above 1000 nM.

Turning to `Cc1nc(-c2ccc(F)cc2)c(-c2nc(C(=O)NC3CCC3)cs2)s1` [Example 1714], the IC50 was at most 1000 nM.

Regarding `Cc1nc(-c2ccc(F)cc2)c(-c2nc(C(=O)NCC3CC3)cs2)s1` [Example 1715], the IC50 was at most 1000 nM. For the compound `CCC(C)NC(=O)c1csc(-c2sc(C)nc2-c2ccc(F)cc2)n1` (centres unmarked) [Example 1716], the IC50 is above 1000 nM.

In turn, `Cc1nc(-c2ccc(F)cc2)c(-c2nc(C(=O)NCC(C)C)cs2)s1` [Example 1717] displayed an IC50 above 1000 nM. Under `Cc1nc(-c2ccc(F)cc2)c(-c2nc(C(=O)NCCCO)cs2)s1` [Example 1718] stands at most 1000 nM; under `Cc1nc(-c2ccc(F)cc2)c(-c2nc(C(=O)NC(C)CO)cs2)s1` (centres unmarked) [Example 1719], at most 1000 nM; under `COCCNC(=O)c1csc(-c2sc(C)nc2-c2ccc(F)cc2)n1` [Example 1720], above 1000 nM. Turning to `Cc1nc(-c2ccc(F)cc2)c(-c2nc(C(=O)NC3CCCC3)cs2)s1` [Example 1721], the IC50 is at most 1000 nM. In turn, `CCCC(C)NC(=O)c1csc(-c2sc(C)nc2-c2ccc(F)cc2)n1` (centres unmarked) [Example 1722] yielded an IC50 above 1000 nM. Under `CCC(C)CNC(=O)c1csc(-c2sc(C)nc2-c2ccc(F)cc2)n1` (centres unmarked) [Example 1723] stands above 1000 nM; under `Cc1nc(-c2ccc(F)cc2)c(-c2nc(C(=O)NC(C)C(C)C)cs2)s1` (centres unmarked) [Example 1724], above 1000 nM; under `Cc1nc(-c2ccc(F)cc2)c(-c2nc(C(=O)NCCC(C)C)cs2)s1` [Example 1725], at most 1000 nM.

As for `Cc1nc(-c2ccc(F)cc2)c(-c2nc(C(=O)NCCN(C)C)cs2)s1` [Example 1726], the IC50 is above 1000 nM.

Compound `COCC(C)NC(=O)c1csc(-c2sc(C)nc2-c2ccc(F)cc2)n1` (centres unmarked) [Example 1727] came in with an IC50 of at most 1000 nM.

`CCC(CO)NC(=O)c1csc(-c2sc(C)nc2-c2ccc(F)cc2)n1` (centres unmarked) [Example 1728]: the IC50 is at most 1000 nM. `CCC(CO)NC(=O)c1csc(-c2sc(C)nc2-c2ccc(F)cc2)n1` (centres unmarked) [Example 1729]: the half-inhibitory concentration (IC50) is at most 1000 nM.

`Cc1nc(-c2ccc(F)cc2)c(-c2nc(C(=O)NCCCCO)cs2)s1` [Example 1730] gave an IC50 of at most 1000 nM. Under `Cc1nc(-c2ccc(F)cc2)c(-c2nc(C(=O)NCc3ccco3)cs2)s1` [Example 1731] stands at most 1000 nM; under `Cc1nc(-c2ccc(F)cc2)c(-c2nc(C(=O)NC3CCCCC3)cs2)s1` [Example 1732], at most 1000 nM. For the compound `Cc1nc(-c2ccc(F)cc2)c(-c2nc(C(=O)NCC3CCCO3)cs2)s1` (centres unmarked) [Example 1733], the IC50 was at most 1000 nM. The result for `Cc1nc(-c2ccc(F)cc2)c(-c2nc(C(=O)NCCC(C)(C)C)cs2)s1` [Example 1734] reads above 1000 nM; that for `Cc1nc(-c2ccc(F)cc2)c(-c2nc(C(=O)NC(C)CC(C)C)cs2)s1` (centres unmarked) [Example 1735], above 1000 nM; that for `Cc1nc(-c2ccc(F)cc2)c(-c2nc(C(=O)NC3CONC3=O)cs2)s1` (centres unmarked) [Example 1736], above 1000 nM. Compound `Cc1nc(-c2ccc(F)cc2)c(-c2nc(C(=O)NN3CCOCC3)cs2)s1` [Example 1737] registered an IC50 above 1000 nM. The result for `Cc1nc(-c2ccc(F)cc2)c(-c2nc(C(=O)NC(CO)C(C)C)cs2)s1` (centres unmarked) [Example 1738] reads at most 1000 nM; that for `Cc1nc(-c2ccc(F)cc2)c(-c2nc(C(=O)NCc3ccccc3)cs2)s1` [Example 1739], at most 1000 nM. As for `Cc1nc(-c2ccc(F)cc2)c(-c2nc(C(=O)NCc3cccnc3)cs2)s1` [Example 1740], the concentration for half-maximal inhibition (IC50) was at most 1000 nM.

Regarding `Cc1nc(-c2ccc(F)cc2)c(-c2nc(C(=O)NCc3ccccn3)cs2)s1` [Example 1741], the concentration for half-maximal inhibition (IC50) was at most 1000 nM. `Cc1nc(-c2ccc(F)cc2)c(-c2nc(C(=O)NCc3ccncc3)cs2)s1` [Example 1742] registered an IC50 of at most 1000 nM. The result for `Cc1nc(-c2ccc(F)cc2)c(-c2nc(C(=O)NCc3cccs3)cs2)s1` [Example 1743] reads at most 1000 nM. Under `Cc1nc(-c2ccc(F)cc2)c(-c2nc(C(=O)NC3CCC(C)CC3)cs2)s1` (centres unmarked) [Example 1744] stands at most 1000 nM; under `Cc1nc(-c2ccc(F)cc2)c(-c2nc(C(=O)NCC3CCCCC3)cs2)s1` [Example 1745], at most 1000 nM. The compound `Cc1nc(-c2ccc(F)cc2)c(-c2nc(C(=O)NC3CCCCCC3)cs2)s1` [Example 1746] displayed an IC50 of at most 1000 nM. The result for `Cc1nc(-c2ccc(F)cc2)c(-c2nc(C(=O)NC3CCCCC3C)cs2)s1` (centres unmarked) [Example 1747] reads at most 1000 nM; that for `Cc1nc(-c2ccc(F)cc2)c(-c2nc(C(=O)NCCN3CCCC3)cs2)s1` [Example 1748], at most 1000 nM.

`Cc1nc(-c2ccc(F)cc2)c(-c2nc(C(=O)NN3CCN(C)CC3)cs2)s1` [Example 1749] returned an IC50 above 1000 nM. Turning to `CCN(CC)CCNC(=O)c1csc(-c2sc(C)nc2-c2ccc(F)cc2)n1` [Example 1750], the IC50 was at most 1000 nM. The result for `Cc1cccc(CNC(=O)c2csc(-c3sc(C)nc3-c3ccc(F)cc3)n2)c1` [Example 1751] reads at most 1000 nM. In turn, `Cc1nc(-c2ccc(F)cc2)c(-c2nc(C(=O)N[C@@H](C)c3ccccc3)cs2)s1` [Example 1752] displayed an IC50 of at most 1000 nM. The result for `Cc1nc(-c2ccc(F)cc2)c(-c2nc(C(=O)N[C@H](C)c3ccccc3)cs2)s1` [Example 1753] reads at most 1000 nM; that for `Cc1nc(-c2ccc(F)cc2)c(-c2nc(C(=O)NCCc3ccccc3)cs2)s1` [Example 1754], at most 1000 nM; that for `Cc1nc(-c2ccc(F)cc2)c(-c2nc(C(=O)NCc3ccccc3C)cs2)s1` [Example 1755], at most 1000 nM. The result for `Cc1ccc(CNC(=O)c2csc(-c3sc(C)nc3-c3ccc(F)cc3)n2)cc1` [Example 1756] reads at most 1000 nM; that for `Cc1cnc(CNC(=O)c2csc(-c3sc(C)nc3-c3ccc(F)cc3)n2)cn1` [Example 1757], at most 1000 nM.

For the compound `Cc1nc(-c2ccc(F)cc2)c(-c2nc(C(=O)NCc3cccc(F)c3)cs2)s1` [Example 1758], the IC50 was at most 1000 nM. Under `Cc1nc(-c2ccc(F)cc2)c(-c2nc(C(=O)NCc3ccc(F)cc3)cs2)s1` [Example 1759] stands at most 1000 nM; under `Cc1nc(-c2ccc(F)cc2)c(-c2nc(C(=O)NCc3ccccc3F)cs2)s1` [Example 1760], at most 1000 nM. `Cc1nc(-c2ccc(F)cc2)c(-c2nc(C(=O)NCCCn3ccnc3)cs2)s1` [Example 1761] registered an IC50 of at most 1000 nM. The result for `Cc1nc(-c2ccc(F)cc2)c(-c2nc(C(=O)NCCC3CCCN3C)cs2)s1` (centres unmarked) [Example 1762] reads above 1000 nM; that for `Cc1nc(-c2ccc(F)cc2)c(-c2nc(C(=O)NCCN3CCCCC3)cs2)s1` [Example 1763], above 1000 nM; that for `Cc1nc(-c2ccc(F)cc2)c(-c2nc(C(=O)NC(C)CCCC(C)C)cs2)s1` (centres unmarked) [Example 1764], above 1000 nM. The result for `Cc1nc(-c2ccc(F)cc2)c(-c2nc(C(=O)NCCN3CCOCC3)cs2)s1` [Example 1765] reads above 1000 nM; that for `CCOC(=O)CC(C)NC(=O)c1csc(-c2sc(C)nc2-c2ccc(F)cc2)n1` (centres unmarked) [Example 1766], at most 1000 nM; that for `Cc1nc(-c2ccc(F)cc2)c(-c2nc(C(=O)NC3CCc4ccccc43)cs2)s1` (centres unmarked) [Example 1767], above 1000 nM. As to `Cc1ccc(CCNC(=O)c2csc(-c3sc(C)nc3-c3ccc(F)cc3)n2)cc1` [Example 1768], the IC50 is above 1000 nM.

In turn, `Cc1ccc(C)c(CNC(=O)c2csc(-c3sc(C)nc3-c3ccc(F)cc3)n2)c1` [Example 1769] registered an IC50 above 1000 nM. The compound `Cc1ccc([C@H](C)NC(=O)c2csc(-c3sc(C)nc3-c3ccc(F)cc3)n2)cc1` [Example 1770] showed an IC50 above 1000 nM.
